Test results as given in patent US5739161A, “Agent for treating hepto.biliary diseases” (priority 1994, dated 1998).
Like-named read-outs stand apart in the source and are kept apart here.

Key:
[1] = observation of diarrhea and loose feces in the rats; type: in vivo, rat (Crj: Wister); settings: rat, oral
Method: (§1) Crj: Wister rats (7 weeks old, weight: 220-250 g) were kept without food for 16 hours, and hydrochloric acid-D-galactosamine 800 mg/kg was administrated by intra peritonealy injection in order to elicit acute hepatopathy model. After 24 hours from the administration of galactosamine, blood sample was collected under ether anesthesia and a serum was separated. The serum was assayed for serum biochemical profile of liver function test by an automatic analyzer (AU 550 available Orympus Kogaku Kogyo K.K.).
(§2) Test compound was dissolved in 0.5% ethanol physiological saline, which was orally administered by force using an oral sonde for rat at 30 minutes before, 2 hours and 6 hours after the administration of the galactosamine.
The generation of a diarrhea and a loose feces observed up to 2 hours after the 3rd administration of the test compounds, and the number of the rats having diarrhea or loose feces were recorded.
(§3) This test was carried out according the same manner as in the Example 1 providing the following compounds were used as test compounds.
(§4) This test was carried out according the same manner as in the Example 1 using the following compounds as test compounds.
(§5) This test was carried out according the same manner as in the Example 1 excepting the following compounds were used as test compounds.

[2] = test system: acute hepatopathy model (galactosamine-elicited); assay: D-galactosamine acute hepatopathy model in rats, serum biochemical liver function test (inhibiting ratio); type: in vivo, rat (Crj: Wister); settings: rat, oral; for inhibition in vivo at 1 mg/kg / inhibition in vivo at 0.01 mg/kg / inhibition in vivo at 0.03 mg/kg / inhibition in vivo at 0.1 mg/kg: 24 h; for inhibition in vivo at 0.01 mg/kg: 10 μg/kg × 3
Method: as §1, §2
The following four items were tested for the serum biochemical liver function test: glutamic oxaloacetic transaminase (GOT), glutamic pyruvic transaminase (GPT) lactate dehydrogenase (LDH)
The inhibiting Ratio (%) was obtained by the results of the serum biochemical profile of liver functional test how much the increases in the above four items by the administration of galactosamine was inhibited by the test compounds. The Inhibiting, Ratio (%) was calculated by the following equation: [formula] (All of the data in the equation are represented by average) […]
as §3, §4, §5

hepatocyte = settings: cited from earlier work
[3] = 1000 μg/kg × 3, up to 2 hours after 3rd administration
[4] = 1000 μg/kg × 3, read-out: inhibiting ratio GOT
[5] = 1000 μg/kg × 3, read-out: inhibiting ratio GPT
[6] = 1000 μg/kg × 3, read-out: inhibiting ratio T-Bil
[7] = 10 μg/kg × 3, up to 2 hours after 3rd administration
[8] = read-out: inhibiting ratio T-Bil
[9] = 30 μg/kg × 3, up to 2 hours after 3rd administration
[10] = 30 μg/kg × 3, read-out: inhibiting ratio GOT
[11] = 30 μg/kg × 3, read-out: inhibiting ratio GPT
[12] = 30 μg/kg × 3, read-out: inhibiting ratio T-Bil
[13] = 100 μg/kg × 3, up to 2 hours after 3rd administration
[14] = 100 μg/kg × 3, read-out: inhibiting ratio GOT
[15] = 100 μg/kg × 3, read-out: inhibiting ratio GPT
[16] = 100 μg/kg × 3, read-out: inhibiting ratio T-Bil

CC(C)C[C@@H](C)C(F)(F)C(=O)CC[C@H]1[C@H](O)CC(=O)[C@@H]1CCCCCCC(=O)O [Test Compound 6, 7-[(1R,2R,3R)-2-{4,4-difluoro-5(R),7-dimethyl-3-oxooctyl}-3-hydroxy-5-oxocyclopentyl]heptanoic acid]
diarrhea / loose feces (number of rats having diarrhea or loose feces) [1, 3]: no diarrhea
inhibition in vivo at 1 mg/kg [2, 4]: 60%
inhibition in vivo at 1 mg/kg [2, 5]: 71%
inhibition in vivo at 1 mg/kg [2, 6]: 88%
inhibiting ratio LDH ([2]; 1000 μg/kg × 3): 63%

CCCCC(C)(C)[C@H](O)/C=C/[C@H]1[C@H](O)CC(=O)[C@@H]1C/C=C\CCCC(=O)O [16,16-dimethyl-PGE2]
hepatocyte protecting activity (hepatocyte): have a hepatocyte protecting activity

CCC(CC)CC(F)(F)C(=O)CC[C@H]1[C@H](O)CC(=O)[C@@H]1CCCCCCC(=O)O [Test Compound 13, 7-[(1R,2R,3R)-2-(4,4-difluoro-6-ethyl-3-oxooctyl)-3-hydroxy-5-oxocyclopentyl]heptanoic acid]
diarrhea / loose feces (number of rats having diarrhea or loose feces) [1, 7]: non
inhibition in vivo at 0.01 mg/kg ([2]; read-out: inhibiting ratio GOT): 47%
inhibition in vivo at 0.01 mg/kg ([2]; read-out: inhibiting ratio GPT): 42%
inhibition in vivo at 0.01 mg/kg [2, 8]: 75%

CC[C@@H](C)CC(F)(F)C(=O)CC[C@H]1[C@H](O)CC(=O)[C@@H]1CCCCCCC(=O)O [Test Compound 11, 7-[(1R,2R,3R)-2-{4,4-difluoro-6(R)-methyl-3-oxooctyl}-3-hydroxy-5-oxocyclopentyl]heptanoic acid]
diarrhea / loose feces (number of rats having diarrhea or loose feces) [1, 7]: non
inhibition in vivo at 0.01 mg/kg ([2]; read-out: inhibiting ratio GOT): 45%
inhibition in vivo at 0.01 mg/kg ([2]; read-out: inhibiting ratio GPT): 34%
inhibition in vivo at 0.01 mg/kg [2, 8]: 56%

CC(C)CCC(F)(F)C(=O)CC[C@H]1CCC(=O)[C@@H]1CCCCCCC(=O)O [Test Compound 7, 7-[(1R,2R)-2-(4,4-difluoro-7-methyl-3-oxooctyl)-5-oxocyclopentyl]heptanoicacid]
diarrhea / loose feces (number of rats having diarrhea or loose feces) [1, 3]: no diarrhea
inhibition in vivo at 1 mg/kg [2, 4]: 52%
inhibition in vivo at 1 mg/kg [2, 5]: 63%
inhibition in vivo at 1 mg/kg [2, 6]: 86%
inhibiting ratio LDH ([2]; 1000 μg/kg × 3): 62%

CC(C)CCC(F)(F)C(=O)CC[C@H]1[C@H](O)CC(=O)[C@@H]1C/C=C\CCCC(=O)O [Test Compound 2, Z-7-[(1R,2R,3R)-2-(4,4-difluoro-7-methyl-3-oxooctyl)-3-hydroxy-5-oxocyclopentyl]hept-5-enoic acid]
diarrhea / loose feces (number of rats having diarrhea or loose feces) [1, 9]: no diarrhea was observed in every rat
inhibition in vivo at 0.03 mg/kg [2, 10]: 29%
inhibition in vivo at 0.03 mg/kg [2, 11]: 36%
inhibition in vivo at 0.03 mg/kg [2, 12]: 51%
inhibiting ratio LDH ([2]; 30 μg/kg × 3): 32%

CCCCC[C@@](C)(O)/C=C/[C@H]1[C@H](O)CC(=O)[C@@H]1C/C=C\CCCC(=O)O [15-methyl-PGE2]
hepatocyte protecting activity (hepatocyte): have a hepatocyte protecting activity

CCCCC(F)(F)C(=O)CC[C@H]1[C@H](O)CC(=O)[C@@H]1CCCCCCC(=O)O [Test Compound 3, 13,14-dihydro-15-keto-16,16-difluoro-PGE1, reference compound]
diarrhea / loose feces (number of rats having diarrhea or loose feces) [1, 13]: 1/6
loose feces (number of rats) [1, 13]: 2/6
inhibition in vivo at 0.1 mg/kg [2, 14]: 63%
inhibition in vivo at 0.1 mg/kg [2, 15]: 76%
inhibition in vivo at 0.1 mg/kg [2, 16]: 80%
inhibiting ratio LDH ([2]; 100 μg/kg × 3): 61%

CC[C@H](C)CC(F)(F)C(=O)CC[C@H]1[C@H](O)CC(=O)[C@@H]1CCCCCCC(=O)O [Test Compound 9, 7-[(1R,2R,3R)-2-{4,4-difluoro-6(S)-methyl-3-oxooctyl}-3-hydroxy-5-oxocyclopentyl]heptanoic acid]
diarrhea / loose feces (number of rats having diarrhea or loose feces) [1, 13]: non
diarrhea / loose feces (number of rats having diarrhea or loose feces) [1, 3]: non
inhibition in vivo at 0.1 mg/kg [2, 14]: 44%
inhibition in vivo at 0.1 mg/kg [2, 15]: 54%
inhibition in vivo at 0.1 mg/kg [2, 16]: 80%
inhibition in vivo at 1 mg/kg [2, 4]: 84%
inhibition in vivo at 1 mg/kg [2, 5]: 88%
inhibition in vivo at 1 mg/kg [2, 6]: 95%

CCCCC(F)(F)C(=O)CC[C@H]1[C@H](O)CC(=O)[C@@H]1C/C=C\CCCC(=O)O [Test Compound 1, 13,14-dihydro-15-keto-16,16-difluoro-PGE2, reference compound]
diarrhea / loose feces (number of rats having diarrhea or loose feces) [1, 9]: 3/10
inhibition in vivo at 0.03 mg/kg [2, 10]: 28%
inhibition in vivo at 0.03 mg/kg [2, 11]: 42%
inhibition in vivo at 0.03 mg/kg [2, 12]: 82%
inhibiting ratio LDH ([2]; 30 μg/kg × 3): 22%

CCC[C@@H](C)C(F)(F)C(=O)CC[C@H]1[C@H](O)CC(=O)[C@@H]1CCCCCCC(=O)O [Test Compound 4, 7-[(1R,2R,3R)-2-{4,4-difluoro-5(R)-methyl-3-oxooctyl}-3-hydroxy-5-oxocyclopentyl]heptanoic acid]
diarrhea / loose feces (number of rats having diarrhea or loose feces) [1, 13]: no diarrhea in any cases
inhibition in vivo at 0.1 mg/kg [2, 14]: 54%
inhibition in vivo at 0.1 mg/kg [2, 15]: 57%
inhibition in vivo at 0.1 mg/kg [2, 16]: 89%
inhibiting ratio LDH ([2]; 100 μg/kg × 3): 51%

CC(C)CC(F)(F)C(=O)CC[C@H]1[C@H](O)CC(=O)[C@@H]1CCCCCCC(=O)O [Test Compound 12, 7-[(1R,2R,3R)-2-(4,4-difluoro-6-methyl-3-oxoheptyl)-3-hydroxy-5-oxocyclopentyl]heptanoic acid]
diarrhea / loose feces (number of rats having diarrhea or loose feces) [1, 13]: non
inhibition in vivo at 0.1 mg/kg [2, 14]: 38%
inhibition in vivo at 0.1 mg/kg [2, 15]: 40%
inhibition in vivo at 0.1 mg/kg [2, 16]: 69%

CCC[C@@H](C)C(F)(F)C(=O)CC[C@H]1CCC(=O)[C@@H]1CCCCCCC(=O)O [Test Compound 10, 7-[(1R,2R)-2-{4,4-difluoro-5(R)-methyl-3-oxooctyl}-5-oxocyclopentyl]heptanoic acid]
diarrhea / loose feces (number of rats having diarrhea or loose feces) [1, 13]: non
inhibition in vivo at 0.1 mg/kg [2, 14]: 36%
inhibition in vivo at 0.1 mg/kg [2, 15]: 39%
inhibition in vivo at 0.1 mg/kg [2, 16]: 59%

CCC[C@H](C)C(F)(F)C(=O)CC[C@H]1[C@H](O)CC(=O)[C@@H]1CCCCCCC(=O)O [Test Compound 8]
diarrhea / loose feces (number of rats having diarrhea or loose feces) [1, 3]: no diarrhea
inhibition in vivo at 1 mg/kg [2, 4]: 59%
inhibition in vivo at 1 mg/kg [2, 5]: 56%
inhibition in vivo at 1 mg/kg [2, 6]: 92%
inhibiting ratio LDH ([2]; 1000 μg/kg × 3): 63%

CC(C)CCC(F)(F)C(=O)CC[C@H]1[C@H](O)CC(=O)[C@@H]1CCCCCCC(=O)O [Test Compound 5, 7-[(1R,2R,3R)-2-(4,4-difluoro-7-methyl-3-oxooctyl)-3-hydroxy-5-oxocyclopentyl]heptanoic acid]
diarrhea / loose feces (number of rats having diarrhea or loose feces) [1, 13]: no diarrhea in any cases
inhibition in vivo at 0.1 mg/kg [2, 14]: 51%
inhibition in vivo at 0.1 mg/kg [2, 15]: 66%
inhibition in vivo at 0.1 mg/kg [2, 16]: 72%
inhibiting ratio LDH ([2]; 100 μg/kg × 3): 59%
